Data taken from PMC7562719, “Discovery of a CNS penetrant small molecule SMN2 splicing modulator with improved tolerability for spinal muscular atrophy” (Scientific Reports, 2020).

Tests used:
Format in all cases: cell-based, human
FL-SMN2 mRNA = assay: qPCR of FL-SMN2 transcripts in SMA type II fibroblasts (GM03813); conditions: 24 h, 50% total FL-SMN2 mRNA increase, normalized to GAPDH, 95% CI in brackets
Method: (§1) GM03813 fibroblasts, GM24468-derived MNs, NRK-49F, MDCK, CV-1, or NCMDF cells were plated at a density of 0.5 or 1.5 × 10^4, 4 × 10^4, 5 × 10^3, 5 × 10^3, 8 × 10^3, or 6 × 10^3 cells/well on 96-well plates, respectively. After approximately 6 h, the medium was added with the same volume of culture medium containing each compound at the concentration of 0.06, 0.2, 0.6, 0.2, and 6 µM. The final concentration of DMSO was adjusted to 0.1% in culture condition.
(§2) All cells were treated with above compounds for 24 h and washed once with Dulbecco’s Phosphate-Buffered Saline without Ca and Mg [D-PBS (–)] (Wako or Nakarai Tesque). In case of using GM03813 or GM24468-derived MNs, cell lysis and reverse transcription were carried out using SuperPrep Cell Lysis & RT Kit for qPCR in accordance with manufacturer’s recommendations (Toyobo, Japan). qPCR was performed using THUNDERBIRD Probe qPCR Mix (Toyobo). The final concentrations of primers and probes were adjusted to 0.4 µM and 0.15 µM, respectively (Supplementary Table 1). Cycle conditions were as follows; 95 °C for 1 min; followed by 40 cycles of denaturation at 95 °C for 15 s; annealing and elongation at 60 °C for 1 min in the ViiA7 RT-PCR system (Thermo Fisher Scientific). The copy numbers of each target were normalized to those of GAPDH.

GALC = GALC enzymatic assay from Hs683 cells; conditions: 3 days
Method: GALC enzymatic activities were quantified as reported by Wiederschain et al.[47]. Hs683 cells were seeded at 1.5 × 10^5 cells/well in 6-well plate. Cells were treated with TEC-1 (0.1, 0.3, or 1 µM) or SMN-C3 (0.03, 0.1, 0.3, or 1 µM) for 3 days. Hs683 cells were washed with D-PBS (–), collected with ultra-pure water using a cell scraper, and homogenized with homogenizers (NS-4, NS310E, Micotechnition, Japan) for 10 s. Cell lysates were centrifuged at 600 × g for 10 min at 4 °C, followed by collection of supernatants. The concentration of protein of each sample was quantified with a BCA kit. The samples were adjusted to 1 µg protein/µL (total volume 20 µL) with ultra-pure water and then 80 µL of reaction buffer (0.25% taurocholate, 0.05% oleic acid and 0.1 mol/L citrate, pH 4.4) containing 80 µM 6-Hexadecanoylamino-4-methylumbelliferone b-D-galactopyranoside (HMU-Gal, Carbosynth, UK) was added. Stop buffer (0.2 mol/L Glycine solution with NaOH, pH 10.6) was mixed with an equal amount of ethanol. The mixture was reacted at 37 °C for 20 h. […] Signals were detected by reading the fluorescence emission at 450 nm with plate reader (Enspire, PerkinElmer) excited by 385 nm. The fluorescence intensity was corrected by the value of standard substrate of 6-hexadecanoylamino-4-methylumbelliferone (Cat. No. EH10520, Carbosynth).

Hs683 cells = assay: psychosine/sphingosine ratio in Hs683 cells by LC/MS/MS; conditions: 3000 nM, 12 days, normalized by sphingosine
Method: Hs683 cells were seeded at 1.5 × 10^5 cells/well in 6-well plates and were treated with TEC-1 or SMN-C3 for 12 days. The sample was extracted with EtOH and dried under nitrogen spray. Pellet was completely re-dissolved in EtOH using vortex and ultrasonication. The resulting sample was centrifuged at 15,000 rpm for 5 min at 4 °C. Analytes were separated from the supernatant and quantified by LC/MS/MS as reported by Boutin et al.[48].

FOXM1ΔC = assay: qPCR of FOXM1ΔC variant in GM03813 fibroblasts; conditions: 24 h, 300% total target mRNA increase, 95% CI in brackets
Method: as §1, §2

FOXM1a = assay: qPCR of FOXM1a variant in GM03813 fibroblasts; conditions: 24 h, 200% total target mRNA increase, 95% CI in brackets
Method: as §1, §2

FOXM1b = assay: qPCR of FOXM1b/c variant in GM03813 fibroblasts; conditions: for Selectivity FOXM1b /FL-SMN2: EC50 of FOXM1b divided by EC1.5× of FL-SMN2; for EC50: Homo sapiens, Fibroblast, GM03813 fibroblasts, 24 h, 50% total target mRNA reduction, 95% CI in brackets
Method: as §1, §2

With `CCN1CCC(c2cc(C)c3nc(-c4cc5c(C)nc(C)cn5n4)cc(=O)n3c2)CC1` [SMN-C3, reference compound] the “EC1.5× FL-SMN2” value (FL-SMN2 mRNA) was 122.1 (74.5–221.7) nM, the “GALC enzymatic activity compared to TEC-1” value (GALC) was “strongly decreased the activity of GALC” and the “increase in psychosine compared to the control” value (Hs683 cells) was “approximately 22 fold”. For the same compound, the “EC4.0× FOXM1ΔC” value (FOXM1ΔC) was 298.5 (248.8–355.8) nM, the “EC3.0× FOXM1a” value (FOXM1a) was 280.3 (211.4–377.7) nM and the “Selectivity FOXM1b /FL-SMN2” value (FOXM1b) was 8. It also gave an EC50 (FOXM1b) of 945 nM.

In the case of `Cc1cn2nc(-c3nc4ccc(N5CCN(C)CC5)cc4c(=O)[nH]3)cc2c(C)n1` [TEC-1, 2-(4,6-dimethylpyrazolo[1,5-a]pyrazin-2-yl)-6-(4-methylpiperazin-1-yl)quinazolin-4(3H)-one], the “EC1.5× FL-SMN2” value (FL-SMN2 mRNA) is reported as 49.1 (22.7–109.4) nM, the GALC enzymatic activity (GALC; 3000 nM) is reported as “slight decrease” and the “increase in psychosine compared to the control” value (Hs683 cells) is reported as 1.9 fold. The “EC4.0× FOXM1ΔC” value (FOXM1ΔC) was 1311.6 (864.7–2285.8) nM, the “EC3.0× FOXM1a” value (FOXM1a) was 1096.8 (809.7–1552.2) nM and the “Selectivity FOXM1b /FL-SMN2” value (FOXM1b) was greater than 61. It also gave an EC50 (FOXM1b) greater than 3000 nM.
